Publication PMC10287566, “Signaling-specific inhibition of the CB1 receptor for cannabis use disorder: phase 1 and phase 2a randomized trials” (Nature Medicine, 2023)
Where two headings read alike, the source gives them in different places.

What was measured:
[1] = molecular target: human CB1 (Homo sapiens, UniProt P21554); assay: [3H]CP55,940 equilibrium binding, HEK293-hCB1 cell membranes; design: 3x hemagglutinin (3HA) (N); expressed in transfected cells; membrane preparation; details: up to 10 µM
[2] = test system: 85 receptors; assay: Eurofins high-throughput binding screen; details: 10 µM
[3] = test system: dogs; assay: Blood pressure, heart rate, ECG and body temperature in conscious dogs (GLP); type: in vivo
Experimental: The dogs had telemetry transmitters for arterial blood pressure, body temperature and ECG measurements. The study was conducted in two parts.

[4] = 91-d repeated oral toxicity study in dogs (GLP); type: in vivo; details: both sexes, Beagle, dog, in vivo
[5] = test system: dogs; assay: 91-d repeated oral toxicity study in dogs (GLP); type: in vivo
[6] = test system: healthy volunteers; type: in vivo, human; details: SAD
Experimental: Participants were admitted to the research clinic at midday before dosing (day −1). In the SAD study, they remained in-house until day 8 for PK and PD samples and safety assessments. In the MAD study, participants remained in-house until day 14 and returned to the research facility on an outpatient basis to have PK and safety assessments at 216 h and 264 h (day 16 and day 18) after their last dose (day 7). Safety monitoring (physical examinations, vital sign measurements, 12-lead ECGs, clinical safety laboratory tests and AE monitoring) were performed throughout the studies. Psychometrics tests (Bond & Lader VAS, Addiction Research Center Inventory (49-item short form) (ARCI-49) and Profile of Mood States 65 self-report items (POMS-65)) and the Columbia-Suicide Severity Rating Scale (C-SSRS) test were performed at baseline, before dose and at 4 h and 24 h after dose on day 1 and day 7 (MAD study, only) and C-SSRS only at 24 h.

[7] = test system: rats; assay: THC-induced dopamine release in nucleus accumbens (microdialysis); type: in vivo; details: 15 µg kg^−1 oral
[8] = Plasma pharmacokinetics/toxicokinetics in dogs (oral and i.v.); type: in vivo; details: both sexes, Beagle, dog; for bioavailability: ratio of AUC per os and i.v.
Experimental: For both conditions, animals were fasted overnight before dosing and up to approximately 2 h afterwards. […] Blood samples were drawn from the cephalic or jugular veins at the following timepoints: before dose and then at 0.125 h (7.5 min), 0.25 h, 0.5 h, 1 h, 2 h, 4 h, 6 h, 8 h, 10 h, 24 h and 48 h after dosing.
Blood samples were immediately cooled on ice. Plasma was prepared by centrifugation for 7 min at 1,600g under refrigeration (4 ± 2 °C), performed within 15 min at maximum after blood sampling. Plasma was divided into two polypropylene tubes containing at least 500 µl and then stored frozen (≤−70 °C) until assay.
For all studies in rats and the 91-d toxicity study in dogs, the timepoints on days 1, 28 and 91 were: before dose and 1, 3, 5, 8 and 24 h after dose. For the 28-d toxicity study in dogs, the timepoints on days 1 and 28 were: before dose and 1, 2, 4, 8, and 24 h after dose. In both species, only mean pre-dose plasma concentrations were calculated on day 14 for the 28-d study and on day 28 for the 91-d study. For the experiments in rats, blood samples for drug analysis were taken from the satellite animals used for the toxicokinetic (TK) analysis (n = 3 per sex per timepoint and per group). For experiments performed in dogs, blood samples were drawn from the cephalic or jugular veins of all animals (n = 3 per sex per group).
TK analysis was performed separately per sex on mean concentrations by a non-compartmental analysis (NCA). The linearity of exposure was evaluated by comparison of the AUC/dose and Cmax/dose ratios. Possible accumulation was evaluated from the ratio of AUC on day 28 and on day 1 for each dose level and each sex. Samples lower than the limit of quantification (LLQ) values (that is, < 8.00 ng ml^−1 in rats and <20.0 ng ml^−1 in dogs) were not included in the calculation of TK parameters.

[9] = end of drug withdrawal period (week 18)
[10] = iv, 0.7 mg/kg, dogs i.v. 0.7 mg/kg
[11] = po, 0.7 mg/kg, dogs po 0.7 mg/kg single
[12] = po, 2 mg/kg, dogs po 2 mg/kg single, 91-day tox study
[13] = po, 2 mg/kg, dogs po 2 mg/kg theoretical (approx. 0.5 mg/kg received), 28-day tox study
[14] = po, 9 mg/kg, dogs po 9 mg/kg single, 28-day tox study
[15] = po, 20 mg/kg, dogs po 20 mg/kg single, 91-day tox study
[16] = po, 36 mg/kg, dogs po 36 mg/kg single, 28-day tox study
[17] = po, 65 mg/kg, dogs po 65 mg/kg single, 91-day tox study

human CB1, sequence (P21554 whole entry): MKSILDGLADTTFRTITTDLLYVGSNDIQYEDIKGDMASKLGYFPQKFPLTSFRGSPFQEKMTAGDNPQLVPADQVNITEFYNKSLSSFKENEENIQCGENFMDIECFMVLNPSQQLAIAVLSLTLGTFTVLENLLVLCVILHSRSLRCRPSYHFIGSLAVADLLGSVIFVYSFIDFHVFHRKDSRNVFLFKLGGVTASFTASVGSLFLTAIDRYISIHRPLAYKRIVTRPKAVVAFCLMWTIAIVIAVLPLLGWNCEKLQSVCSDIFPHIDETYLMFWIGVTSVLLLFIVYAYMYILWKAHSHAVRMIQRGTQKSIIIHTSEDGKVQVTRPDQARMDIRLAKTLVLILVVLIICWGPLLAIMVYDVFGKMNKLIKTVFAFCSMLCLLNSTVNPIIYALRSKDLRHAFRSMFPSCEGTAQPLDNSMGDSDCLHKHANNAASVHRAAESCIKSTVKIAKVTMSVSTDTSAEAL

COc1ccc(CO[C@H]2CC[C@@]3(C)C(=CC[C@H]4[C@@H]5CC[C@H](C(C)=O)[C@@]5(C)CC[C@@H]43)C2)cc1 [AEF0117, 3β-(4-methoxybenzyloxy)pregn-5-en-20-one]
effect on equilibrium binding of [3H]CP55,940 [1]: does not modify | binding activity at 85 receptors [2]: did not modify binding to any receptor | adverse effects on blood pressure, heart rate, ECG and body temperature [3]: did not show any adverse effects | NOAEL at 91 d ([4]; 91-d repeated oral): > 65 mg/kg/day | NOAEL at 91 day ([4]; oral, 91-day, highest dose tested): 65 mg/kg/day | change in eosinophil count ([5]; all dose groups, week 5): -41% | change in eosinophil count ([5]; all dose groups, week 14): -54% | change in lymphocyte count ([5]; all dose groups, week 14): -17 to -24% | change in eosinophil count [5, 9]: -66% | change in lymphocyte count [5, 9]: -19% | change in thymus weight vs vehicle ([5]; end of treatment period): -15 to -24% | ARCI 49 sub-scores ([6]; 0.2-6 mg vs placebo): No relevant trend | Bond and Lader VAS (alertness, contentedness, calmness) ([6]; 0.2-6 mg vs placebo): No clinically relevant differences | POMS 65 sub-scales ([6]; 0.2-6 mg vs placebo): No relevant trend | C-SSRS: number of subjects with suicidal ideation or behavior ([6]; all doses 0.2-6 mg, Day 1 and Day 2): 0 n (%) | THC-induced increase in Nac extracellular dopamine [7]: inhibited | Tmax ([8]; dogs po 0.7 mg/kg single): 2.67 h | Tmax ([8]; dogs po 2 mg/kg theoretical (approx. 0.5 mg/kg received), 28-day tox study): 4 h | Tmax ([8]; dogs po 9 mg/kg single, 28-day tox study): 6 h | Tmax ([8]; dogs po 20 mg/kg single, 91-day tox study): 4 h | Tmax ([8]; dogs po 36 mg/kg single, 28-day tox study): 4 h | Tmax ([8]; dogs po 65 mg/kg single, 91-day tox study): 4 h | half-life ([8]; dogs, read-out: terminal half-life (converted)): 35.9 h | AUC(0-t) [8, 10]: 2190 ng·h/mL | Cmax [8, 10]: 505 ng/mL | half-life ([8]; iv, 0.7 mg/kg, dogs i.v. 0.7 mg/kg, manual linear regression of last three points, read-out: t½ (converted)): 35.9 h | half-life ([8]; iv, 0.7 mg/kg, dogs iv, read-out: half-life): 33.5 to 38.2 h | Tmax ([8]; iv, dogs i.v. 0.7 mg/kg): 0.125 h | bioavailability ([8]; oral, 0.7 mg kg^−1, dogs): ~68% | AUC(0-t) [8, 11]: 1450 ng·h/mL | Cmax [8, 11]: 138 ng/mL | half-life ([8]; po, 0.7 mg/kg, dogs po 0.7 mg/kg, manual linear regression of last three points, read-out: t½ (converted)): 28 h | bioavailability ([8]; po, 0.7 mg/kg, dogs): 68% | AUC(0-t) [8, 12]: 2910 ng·h/mL | Cmax [8, 12]: 241 ng/mL | AUC(0-t) [8, 13]: 1020 ng·h/mL | Cmax [8, 13]: 95 ng/mL | AUC(0-t) [8, 14]: 18500 ng·h/mL | Cmax [8, 14]: 1200 ng/mL | AUC(0-t) [8, 15]: 26500 ng·h/mL | Cmax [8, 15]: 2530 ng/mL | AUC(0-t) [8, 16]: 50300 ng·h/mL | Cmax [8, 16]: 3480 ng/mL | AUC(0-t) [8, 17]: 43500 ng·h/mL | Cmax [8, 17]: 3300 ng/mL | half-life ([8]; po, dogs per os, read-out: half-life): 24.4 to 31.6 h
